Patent publication US20230087609A1, “USE OF A SOLUBLE GUANYLATE CYCLASE (sGC) STIMULATOR OR OF A COMBINATION OF A sGC STIMULATOR AND AN sGC ACTIVATOR FOR CONDITIONS WHEREIN THE HEME GROUP OF sGC IS OXIDIZED OR WHEREIN sGC IS DEFICIENT IN HEME” (Universiteit Maastricht, priority 2020, published 2023)

Test system: isolated rat mesenteric arteries
Experiment: Relaxation of isolated rat mesenteric arteries (myograph)
From the text: The animals were killed humanely via CO2 inhalation (95% CO2, 5% O2) followed by cervical dislocation and exsanguination. The required tissues were dissected and placed in ice-cold oxygenated Krebs' solution (composition in mM: NaCl 119, KCl 4.7, MgSO4 1.17, NaHCO3 25, KH2PO4 1.18, CaCl2 2.5, glucose 5.5, EDTA 0.026, pH 7.4). The collected arteries were carefully freed of fat and connective tissue and cut into 2 mm rings.
The segments were then mounted in a small vessel myograph for the measurement of changes in isometric tension. Two 40 μm stainless steel wires were inserted through the lumen of the segment, one attached to an isometric force transducer and the other to a support driven by a micrometer. The vessels were maintained in Krebs' solution at 37° C. in 7 ml myograph chambers and were continuously bubbled with carbogen (95% O2, 5% CO2). Arteries were allowed to equilibrate for a 30 min period under zero force after which their internal diameter was normalised to an equivalent transmural pressure of 100 mmHg. Changes in isometric tension were reordered using a Myograph Interface Model 610 M version 2.2 (AD Instruments, Pty Ltd) and a chart recorder (Yokogawa, Japan), or using a MacLab® (MacLab® data-acquisition system, AD Instruments Pty Ltd.), interfaced with a Macintosh Computer. Following the 30 min equilibration period at optimal resting tension, the vessels were contracted maximally using a potassium depolarising KPSS solution (composition in mM: KCl 123, MgSO4 1.17, KH2PO4 2.37, CaCl2 2.5, glucose, 5.5 and EDTA 0.026). After the maximum contraction reached a plateau, the vessels were washed thoroughly using Krebs' solution and the tension allowed to return to the baseline. The vessels were then pre-contracted to ≈50% maximum contraction using titrated concentration of the thromboxane A2 mimetic U46619 (0.1-100 nM) and a titrated concentration of the al agonist cirazoline (1-100 nM). Subsequently, cumulative (0.5 log unit) concentration response curve to BAY 58-2667 (1 pM-0.1 μM) were constructed in the presence and absence of 100nM BAY 41-2272 (100 nM). All treatments used in our study including the pre-incubation with 10 μM ODQ for 30 min were added before the 50% pre-contraction with cirazoline and U46619 and only one concentration response curve to any vasodilator was constructed in each segment of the blood vessel. At the completion of each concentration response curve, maximal relaxation was achieved by adding nifedipine 10 μM.
Results are expressed as mean±s.e.m, with n representing the number of samples used from separate subjects. Statistical significance was accepted at the P<0.05 level. Relaxation responses to BAY58-2667 were expressed as a percentage reversal of the level of pre-contraction to U46619, with the response to nifedipine 10 μM defined as 100% relaxation. The individual response curves obtained for each vasodilator were fitted using non-linear regressions (Graphpad Prism®, version 5). In-vitro experiments have been performed with n=3 and n=1. Maximal relaxation values (%) at specific concentrations of the compounds were compared. For multiple comparisons, student's t-test or one-way analysis of variance (ANOVA) was followed by Bonferroni's test. • The results of our experiments are represented by the following non-limiting examples.

**Q.** `Nc1nc(-c2nn(Cc3ccccc3F)c3ncccc23)ncc1C1CC1` [BAY 41-2272, 5-cyclopropyl-2-[1-(2-fluoro-benzyl)-1H-pyrazolo[3,4-b]pyridin-3-yl]-pyrimidin-4-ylamine] was tested. Which “relaxation, compound alone” value (0.1 μM BAY 41-2272 alone, pre-contraction with U46619) did it give?
**A.** no relaxation

**Q.** And the “effect on Bay 58-2667 relaxation” value (nano-molar range)?
**A.** augmented

**Q.** What about the “effect on DEA/NO (NO donor) relaxation” value (nano-molar range) of the same compound?
**A.** augmented
